Reference: US20260098061A1, “EPHA2-BINDING PENDING PEPTIDE AND COMPOSITION COMPRISING SAME” (PeptiDream Inc., priority 2022, published 2026)
Numbered stars: 1 amine (or outer) side, 2 acyl side, 3 side chain; on linkers, the order of the positions; unused ones are H or OH. Bridge positions count the residues as written; N and C are the ends. Square brackets hold non-standard residues; d marks the D form. Side chains are listed from the residue outwards. Peptide text beside a SMILES is read from it. * marks the point of attachment. NH(1-deoxy-D-glucityl) = OC[C@@H](O)[C@@H](O)[C@H](O)[C@@H](O)CN*; Trp(1-Me,7-Cl) = Cn1cc(C[C@H](N)C(=O)O)c2cccc(Cl)c21; Ala(2-NH2-4-pyridyl) = Nc1cc(C[C@H](N)C(=O)O)ccn1; dPhe(3-CONH2) = NC(=O)c1cccc(C[C@@H](N)C(=O)O)c1; Piperazinyl(4-CH2COOH) = O=C(O)CN1CCN(*)CC1; Trp(1-Me) = Cn1cc(C[C@H](N)C(=O)O)c2ccccc21; NMe3Pal = CN[C@@H](Cc1cccnc1)C(=O)O; NMeF = CN[C@@H](Cc1ccccc1)C(=O)O; hArg = N=C(N)NCCCC[C@H](N)C(=O)O; hCit = NC(=O)NCCCC[C@H](N)C(=O)O; Gly(cBu) = N[C@H](C(=O)O)C1CCC1; NMeE = CN[C@@H](CCC(=O)O)C(=O)O; Aad = N[C@@H](CCCC(=O)O)C(=O)O; NMeN = CN[C@@H](CC(N)=O)C(=O)O; Chg = N[C@H](C(=O)O)C1CCCCC1; CO = O=C([*:1])[*:2]; βAla = NCCC(=O)O

Biological target: T1, Recombinant Human EphA2 Fc Protein (Homo sapiens, UniProt P29317)
T1 construct: purchased Elabscience
Assay: SPR interaction analysis (Biacore T200), kinetics of peptides against EphA2
Type: binding
Conditions: Recombinant Human EphA2 Fc Protein captured by Human Antibody Capture kit; single-cycle kinetics; 25° C.; HBS-P+ buffer with 1% DMSO
Summary of the method: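 KD derived from ka and kd, fitted on baseline-subtracted sensorgrams from single-cycle kinetics of five peptide dilutions. Running buffer: HBS-P+ (pH 7.4) plus 1% DMSO, 25° C, Biacore T200. Recombinant human EphA2-Fc held on an antibody capture surface.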

| Kd [nM] | Structure (SMILES) |
| --- | --- |
| < 1 | C[C@@H](O)[C@@H]1NC(=O)[C@H](Cc2cn(C)c3ccccc23)NC(=O)[C@H](CCC(=O)NC[C@H](O)[C@@H](O)[C@H](O)[C@H](O)CO)NC(=O)[C@H](Cc2cn(C)c3c(Cl)cccc23)NC(=O)[C@H](Cc2cccnc2)N(C)C(=O)[C@H](CCCC(N)=O)NC(=O)[C@H](C2CCC2)NC(=O)[C@H](CC(N)=O)NC(=O)[C@H](Cc2ccccc2)N(C)C(=O)[C@@H](Cc2cccc(C(N)=O)c2)NC(=O)CSC[C@@H](C(N)=O)NC(=O)[C@H](CCCC(N)=O)NC1=O [PDC_EphA2-00019435, df3CON-MeF-N-Cbg-Hgn-Me3Py-W1Me7Cl-Qglucamine-W1Me-T-Hgn-C-NH2] ({CH2CO}-[dPhe(3-CONH2)][NMeF]N[Gly(cBu)][Aad](NH2)[NMe3Pal][Trp(1-Me,7-Cl)]E(NH(1-deoxy-D-glucityl))[Trp(1-Me)]T[Aad](NH2)C-NH2; thioether N-12) |
| < 1 | CC(C)C[C@@H]1NC(=O)[C@H](CC(N)=O)NC(=O)[C@H](Cc2cccnc2)N(C)C(=O)[C@@H](C)NC(=O)CSC[C@@H](C(N)=O)NC(=O)[C@H](CCCC(N)=O)NC(=O)[C@H]([C@@H](C)O)NC(=O)[C@H](Cc2cn(C)c3ccccc23)NC(=O)[C@H](CCCCNC(=O)N2CCN(CC(=O)O)CC2)NC(=O)[C@H](Cc2cn(C)c3ccccc23)NC(=O)[C@H](CCC(=O)O)N(C)C(=O)[C@H](CCCC(N)=O)NC1=O [PDC_EphA2-00010008, da-Me3Py-N-L-Hgn-MeE-W1Me-KCOpipzaa-W1Me-T-Hgn-C-NH2] ({CH2CO}-[dA][NMe3Pal]NL[Aad](NH2)[NMeE][Trp(1-Me)]K([CO-Piperazinyl(4-CH2COOH)])[Trp(1-Me)]T[Aad](NH2)C-NH2; thioether N-12) |
| < 1 | C[C@@H](O)[C@@H]1NC(=O)[C@H](Cc2cn(C)c3ccccc23)NC(=O)[C@H](CCCCNC(=O)N2CCN(CC(=O)O)CC2)NC(=O)[C@H](Cc2cn(C)c3c(Cl)cccc23)NC(=O)[C@H](CC(N)=O)N(C)C(=O)[C@H](CCCC(N)=O)NC(=O)[C@H](C2CCC2)NC(=O)[C@H](CC(N)=O)NC(=O)[C@H](Cc2ccccc2)N(C)C(=O)[C@@H](Cc2cccc(C(N)=O)c2)NC(=O)CSC[C@@H](C(N)=O)NC(=O)[C@H](CCCC(N)=O)NC1=O [PDC_EphA2-00019425, df3CON-MeF-N-Cbg-Hgn-MeN-W1Me7Cl-KCOpipzaa-W1Me-T-Hgn-C-NH2] ({CH2CO}-[dPhe(3-CONH2)][NMeF]N[Gly(cBu)][Aad](NH2)[NMeN][Trp(1-Me,7-Cl)]K([CO-Piperazinyl(4-CH2COOH)])[Trp(1-Me)]T[Aad](NH2)C-NH2; thioether N-12) |
| < 1 | C[C@@H](O)[C@@H]1NC(=O)[C@H](Cc2cn(C)c3ccccc23)NC(=O)[C@H](CCCCNC(N)=O)NC(=O)[C@H](Cc2cn(C)c3c(Cl)cccc23)NC(=O)[C@H](CC(N)=O)N(C)C(=O)[C@H](CCCC(N)=O)NC(=O)[C@H](C2CCC2)NC(=O)[C@H](CC(N)=O)NC(=O)[C@H](Cc2cccnc2)N(C)C(=O)[C@@H](Cc2cccc(C(N)=O)c2)NC(=O)CSC[C@@H](C(N)=O)NC(=O)[C@H](CCCCNC(=N)N)NC1=O [PDC_EphA2-00019429, df3CON-Me3Py-N-Cbg-Hgn-MeN-W1Me7Cl-Hcit-W1Me-T-Har-C-NH2] ({CH2CO}-[dPhe(3-CONH2)][NMe3Pal]N[Gly(cBu)][Aad](NH2)[NMeN][Trp(1-Me,7-Cl)][hCit][Trp(1-Me)]T[hArg]C-NH2; thioether N-12) |
| < 1 | C[C@@H](O)[C@@H]1NC(=O)[C@H](Cc2cn(C)c3ccccc23)NC(=O)[C@H](CCC(=O)NC[C@H](O)[C@@H](O)[C@H](O)[C@H](O)CO)NC(=O)[C@H](Cc2cn(C)c3c(Cl)cccc23)NC(=O)[C@H](Cc2ccccc2)N(C)C(=O)[C@H](CCCCNC(=O)N2CCN(CC(=O)O)CC2)NC(=O)[C@H](C2CCC2)NC(=O)[C@H](CC(N)=O)NC(=O)[C@H](Cc2cccnc2)N(C)C(=O)[C@@H](Cc2cccc(C(N)=O)c2)NC(=O)CSC[C@@H](C(N)=O)NC(=O)[C@H](CCCC(N)=O)NC1=O [PDC_EphA2-00019442, df3CON-Me3Py-N-Cbg-KCOpipzaa-MeF-W1Me7Cl-Qglucamine-W1Me-T-Hgn-C-NH2] ({CH2CO}-[dPhe(3-CONH2)][NMe3Pal]N[Gly(cBu)]K([CO-Piperazinyl(4-CH2COOH)])[NMeF][Trp(1-Me,7-Cl)]E(NH(1-deoxy-D-glucityl))[Trp(1-Me)]T[Aad](NH2)C-NH2; thioether N-12) |
| < 1 | C[C@H]1NC(=O)CSC[C@@H](C(N)=O)NC(=O)[C@H](CCCC(N)=O)NC(=O)[C@H]([C@@H](C)O)NC(=O)[C@H](Cc2cn(C)c3ccccc23)NC(=O)[C@H](CCC(=O)NC[C@H](O)[C@@H](O)[C@H](O)[C@H](O)CO)NC(=O)[C@H](Cc2cn(C)c3ccccc23)NC(=O)[C@H](CC(N)=O)N(C)C(=O)[C@H](CCCC(N)=O)NC(=O)[C@H](C2CCC2)NC(=O)[C@H](CC(N)=O)NC(=O)[C@H](Cc2ccccc2)N(C)C1=O [PDC_EphA2-00013703, da-MeF-N-Cbg-Hgn-MEN-W1Me-Qglucamine-W1Me-T-Hgn-C-NH2] ({CH2CO}-[dA][NMeF]N[Gly(cBu)][Aad](NH2)[NMeN][Trp(1-Me)]E(NH(1-deoxy-D-glucityl))[Trp(1-Me)]T[Aad](NH2)C-NH2; thioether N-12) |
| 10 to 100 | CC(=O)NCCCC[C@@H](NC(=O)[C@@H]1CSCC(=O)N[C@@H](Cc2ccccc2)C(=O)N[C@@H](Cc2c[nH]cn2)C(=O)N[C@@H](CC(N)=O)C(=O)N[C@@H](CC(C)C)C(=O)N[C@@H](CO)C(=O)N(C)[C@@H](Cc2ccccc2)C(=O)N[C@@H](Cc2cn(C)c3ccccc23)C(=O)N[C@@H](CCCCNC(N)=O)C(=O)N[C@@H](Cc2cn(C)c3ccccc23)C(=O)N1)C(N)=O [PDC_EphA2-00022608, F-H-N-L-S-MeF-W1Me-Hcit-W1Me-C-dkAc-NH2] ({CH2CO}-FHNLS[NMeF][Trp(1-Me)][hCit][Trp(1-Me)]C[dK](Ac)-NH2; thioether N-10) |
| 100 to 400 | CC(=O)NCCCC[C@H](NC(=O)[C@@H]1CSCC(=O)N[C@@H](Cc2ccccc2)C(=O)N[C@@H](Cc2ccnc(N)c2)C(=O)N[C@@H](CC(C)C)C(=O)N[C@@H](CCCCNC(N)=O)C(=O)N[C@@H](Cc2cn(C)c3ccccc23)C(=O)N(C)[C@@H](Cc2ccccc2)C(=O)N[C@@H](Cc2cn(C)c3ccccc23)C(=O)N1)C(N)=O [PDC_EphA2-00022602, F-4Py2NH2-L-Hcit-W1Me-MeF-W1Me-C-KAc-NH2] ({CH2CO}-F[Ala(2-NH2-4-pyridyl)]L[hCit][Trp(1-Me)][NMeF][Trp(1-Me)]CK(Ac)-NH2; thioether N-8) |
| < 1 | C[C@H]1NC(=O)CSC[C@@H](C(N)=O)NC(=O)[C@H](CCCC(N)=O)NC(=O)[C@H]([C@@H](C)O)NC(=O)[C@H](Cc2cn(C)c3ccccc23)NC(=O)[C@H](CCCCNC(=O)N2CCN(CC(=O)O)CC2)NC(=O)[C@H](Cc2cn(C)c3ccccc23)NC(=O)[C@H](Cc2ccccc2)N(C)C(=O)[C@H](CCCC(N)=O)NC(=O)[C@H](C2CCCCC2)NC(=O)[C@H](CC(N)=O)NC(=O)[C@H](Cc2cccnc2)N(C)C1=O [PDC_EphA2-00010005, da-Me3Py-N-Chg-Hgn-MeF-W1Me-KCOpipzaa-W1Me-T-Hgn-C-NH2] ({CH2CO}-[dA][NMe3Pal]N[Chg][Aad](NH2)[NMeF][Trp(1-Me)]K([CO-Piperazinyl(4-CH2COOH)])[Trp(1-Me)]T[Aad](NH2)C-NH2; thioether N-12) |
| < 1 | CC(=O)NCCCC[C@@H](NC(=O)CCNC(=O)[C@@H]1CSCC(=O)N[C@H](C)C(=O)N(C)[C@@H](Cc2ccccc2)C(=O)N[C@@H](CC(N)=O)C(=O)N[C@@H](CC(C)C)C(=O)N[C@@H](CCCC(=O)O)C(=O)N(C)[C@@H](Cc2ccccc2)C(=O)N[C@@H](Cc2cn(C)c3ccccc23)C(=O)N[C@@H](C(C)C)C(=O)N[C@@H](Cc2cn(C)c3ccccc23)C(=O)N[C@@H]([C@@H](C)O)C(=O)N[C@@H](CCC(=O)O)C(=O)N1)C(N)=O [PDC_EphA2-00008082, da-MeF-N-L-Hgl-MeF-W1Me-V-W1Me-T-E-C-bA-dkAc-NH2] ({CH2CO}-[dA][NMeF]NL[Aad][NMeF][Trp(1-Me)]V[Trp(1-Me)]TEC[βAla][dK](Ac)-NH2; thioether N-12) |
| < 1 | CC(=O)NCCCC[C@@H](NC(=O)CCNC(=O)[C@@H]1CSCC(=O)N[C@H](C)C(=O)N(C)[C@@H](Cc2cccnc2)C(=O)N[C@@H](CC(N)=O)C(=O)N[C@@H](CC(C)C)C(=O)N[C@@H](CCCCNC(=O)N2CCN(CC(=O)O)CC2)C(=O)N(C)[C@@H](Cc2ccccc2)C(=O)N[C@@H](Cc2cn(C)c3ccccc23)C(=O)N[C@@H](CCCCNC(=O)N2CCN(CC(=O)O)CC2)C(=O)N[C@@H](Cc2cn(C)c3ccccc23)C(=O)N[C@@H]([C@@H](C)O)C(=O)N[C@@H](CCC(=O)O)C(=O)N1)C(N)=O [PDC_EphA2-00008088, da-Me3Py-N-L-KCOpipzaa-MeF-W1Me-KCOpipzaa-W1Me-T-E-C-bA-dkAc-NH2] ({CH2CO}-[dA][NMe3Pal]NLK([CO-Piperazinyl(4-CH2COOH)])[NMeF][Trp(1-Me)]K([CO-Piperazinyl(4-CH2COOH)])[Trp(1-Me)]TEC[βAla][dK](Ac)-NH2; thioether N-12) |
| < 1 | CC(C)[C@@H]1NC(=O)[C@H](Cc2cn(C)c3ccccc23)NC(=O)[C@H](CC(N)=O)N(C)C(=O)[C@H](CCCC(N)=O)NC(=O)[C@H](C2CCC2)NC(=O)[C@H](CC(N)=O)NC(=O)[C@H](Cc2ccccc2)N(C)C(=O)[C@@H](C)NC(=O)CSC[C@@H](C(N)=O)NC(=O)[C@H](CCCC(N)=O)NC(=O)[C@H]([C@@H](C)O)NC(=O)[C@H](Cc2cn(C)c3ccccc23)NC1=O [PDC_EphA2-00013693, da-MeF-N-Cbg-Hgn-MeN-W1Me-V-W1Me-T-Hgn-C-NH2] ({CH2CO}-[dA][NMeF]N[Gly(cBu)][Aad](NH2)[NMeN][Trp(1-Me)]V[Trp(1-Me)]T[Aad](NH2)C-NH2; thioether N-12) |
